According to ChEMBL document CHEMBL1132017, “In vitro susceptibility of Helicobacter pylori to trifluoromethyl ketones” (1999):
≈ marks a conversion by molar mass, not a printed value.

The molecules below were run on Helicobacter pylori (assay: In vitro inhibitory activity evaluated against Helicobacter pylori (HP)).
Format: functional

SMILES	MIC50 [µg/mL]
Cn1c(C(=O)C(F)(F)F)cnc1-c1ccccc1	> 100
O=C(c1ccc[nH]1)C(F)(F)F	> 100
Cc1nc(CC(=O)C(F)(F)F)oc1C	> 100
O=C(c1nc2ccccc2o1)C(F)(F)F	> 100
Cc1ncc([N+](=O)[O-])n1CCO [METRONIDAZOLE]	74 (≈ 432 µM)
O=C(Cc1ccccn1)C(F)(F)F	> 100
O=C(c1ccccc1)C(F)(F)F	> 100
O=C(Cc1ccccc1)C(F)(F)F	> 100

The next molecules have a lower MIC50 than those just listed; values first:

MIC50 [µg/mL]	SMILES
70 (≈ 285 µM)	O=C(Cc1nc2ccccc2s1)C(F)(F)F
53 (≈ 294 µM)	O=C(c1cccs1)C(F)(F)F
52 (≈ 228 µM)	O=C(Cc1nc2ccccc2[nH]1)C(F)(F)F
51 (≈ 291 µM)	CC(=O)Cc1nc2ccccc2o1
12 (≈ 56.3 µM)	O=C(c1c[nH]c2ccccc12)C(F)(F)F
3.6 (≈ 15.7 µM)	O=C(Cc1nc2ccccc2o1)C(F)(F)F
1.9 (≈ 2.54 µM)	CC[C@H]1OC(=O)[C@H](C)[C@@H](O[C@H]2C[C@@](C)(OC)[C@@H](O)[C@H](C)O2)[C@H](C)[C@@H](O[C@@H]2O[C@H](C)C[C@H](N(C)C)[C@H]2O)[C@](C)(OC)C[C@@H](C)C(=O)[C@H](C)[C@@H](O)[C@]1(C)O [CLARITHROMYCIN]
1.8 (≈ 2.45 µM)	CC[C@H]1OC(=O)[C@H](C)[C@@H](O[C@H]2C[C@@](C)(OC)[C@@H](O)[C@H](C)O2)[C@H](C)[C@@H](O[C@@H]2O[C@H](C)C[C@H](N(C)C)[C@H]2O)[C@](C)(O)C[C@@H](C)C(=O)[C@H](C)[C@@H](O)[C@]1(C)O [ERYTHROMYCIN]
